Like-named read-outs stand apart in the source and are kept apart here.
System: TNFα release by human PBMCs
Test: Cytokine release by LPS-stimulated human PBMCs (TNFα ELISA)
Assay type: cell-based
Details: LPS 1 μg/mL, 24 hr
Method: Human peripheral blood mononuclear cells (PBMCs) are isolated from “buffy coats” prepared from the blood of healthy volunteers, isolated essentially according to method of Bøyum (1984). In brief, buffy coat is diluted 1:1 with 1×PBS (Gibco) and 30 mL is carefully put on top of 20 mL Lymphoprep™ (Lucron Bioproducts) in 50 mL Falcon tubes. After centrifugation (35 min, 400 g, 18° C.) the mononuclear cells are collected from the white interphase and washed 3 times with 1×PBS by resuspending and centrifugation (10 min, 200 g). Isolated PBMCs are finally resuspended in RPMI 1640 (Cat. No. 21875, Gibco) that is supplemented with 10% heat-inactivated FBS (Hyclone).
For the assay PBMCs are seeded at 2.5E6 cells/mL in 160 μL in 96-well plates (Nunc). Serial dilution of the test compounds are made first in DMSO (Sigma) and then diluted 50-fold in M199 medium (Gibco) containing 1% heat-inactivated FBS. Compounds are further 1/10 diluted in the assay plates to obtain final DMSO concentration of 0.2%. Cells are preincubated with the compounds for 1 hr at 37° C., 5% CO2. Then, cells are stimulated with LPS (Escherichia coli serotype 026:B6, Cat. No. L2654, Sigma) that is added in a volume of 20 μL to a final concentration of 1 μg/mL and cells are further cultured for 24 hr. The plates are centrifuged and the supernatant is collected and stored at −80° C. until analysis of appropriate dilutions in ELISAs.
The following 384-well chemiluminescent ELISA protocol was developed to measure TNFα levels in the supernatant: White Lumitrac 600 384-well plates (Greiner) are coated with (40 μL/well) anti-TNFα capture antibody (Cat. No. 551220, BD Pharmingen) that is diluted to 1 μg/mL in 1×PBS (Gibco). After overnight incubation at 4° C., plates are washed with 1×PBS (80 g NaCl, 2 g KCl (Sigma), 11.5 g Na2HPO4.7H2O and 2 g KH2PO4 in 10 L milliQ; pH 7.4) and blocked with 100 μL/well buffer B (1×PBS containing 1% BSA (Sigma), 5% sucrose (Sigma) and 0.05% NaN3 (Sigma)). After 4 hr incubation at RT, blocking buffer is removed and plates are washed once with PBST (1×PBS with 0.05% Tween-20 (Sigma)). Then, 40 μL of sample is transferred to the ELISA plates and plates are incubated at 4° C. Next day, plates are washed 3 times (twice with PBST and once with PBS) and 35 μL/well biotinylated anti-TNFα antibody (Cat. No. 554511, BD Pharmingen) diluted first to a concentration of 250 ng/ml in buffer D (1×PBS with 1% BSA) is added. After 2 h of incubation at RT, plates are washed as described above and 35 μL/well of a 1/2000 dilution of streptavidin-HRP conjugate (Cat. No. SNN2004, Biosource) in buffer D is added. After 45 min, plates are washed as described above and incubated for 5 min with 50 μL/well BM Chemiluminescence ELISA Substrate POD (Roche). Readout is performed on the Luminoscan Ascent Luminometer (Labsystems) with an integration time of 100 msec delivering raw data (RLU: relative luminescence units). The following controls are included in the experiments, a maximal signal control, in which the cells are activated by LPS but only the 0.2% DMSO vehicle (and thus no compound) is added. This control indicates the maximal level of TNFα that can be achieved in the test. A minimal signal control is also included in these experiments. Here, cells are not triggered. This control returns the basal TNFα levels produced by the PBMCs. The percent inhibition (PIN) of the TNFα release, achieved by the compounds is then calculated based on the RLU data returned by the ELISA with following formula: 100−[((TNFα level compound X at concentration Y−minimal TNFα levels)/(maximal TNFα levels−minimal TNFα levels))×100]. Where compounds are tested at 8 concentrations (1/3 serial dilution), EC50-values can be calculated by curve fitting of the means of the PIN data achieved for a compound at each test concentration. […]

Cc1[nH]ncc1-c1cnc(Nc2ccc(N3CCN(C)CC3)cc2)c2nccn12 [Compound 119, (4-(4-Methylpiperazin-1-yl)phenyl)-[5-(5-methyl-1H-pyrazol-4-yl)imidazo[1,2-a]pyrazin-8-yl]amine]
EC50 (PBMC): > 1 µM

NC(=O)c1c(F)cc(-c2cnc(Nc3ccc(N4CCOCC4)cc3)c3nccn23)cc1F [Compound 165]
EC50 (PBMC): > 1 µM

CC(C)N1CCN(c2ccc(Nc3ncc(-c4cc(F)c(C(N)=O)c(F)c4)n4ccnc34)cc2)CC1 [Compound 193]
EC50 (PBMC): > 1 µM

C[C@@H]1CN(c2ccc(Nc3ncc(-c4cc(C(N)=O)co4)n4ccnc34)cc2)[C@@H](C)CN1C [Compound 187]
EC50 (PBMC): > 1 µM

CC(C)N1CCN(c2ccc(Nc3ncc(-c4ccc5c(c4)CNC5=O)n4ccnc34)cn2)CC1 [Compound 210, 5-{8-[6-(4-Isopropyl-piperazin-1-yl)-pyridin-3-ylamino]-imidazo[1,2-a]pyrazin-5-yl}-2,3-dihydro-isoindol-1-one]
EC50 (PBMC): > 1 µM

CN(C)Cc1cc(Nc2ncc(-c3cn[nH]c3)n3ccnc23)ccc1N1CCOCC1 [Compound 218, (3-Dimethylaminomethyl-4-morpholin-4-yl-phenyl)-[5-(1H-pyrazol-4-yl)-imidazo[1,2-a]pyrazin-8-yl]-amine]
EC50 (PBMC): > 1 µM

NC(=O)c1ccc(-c2cnc(Nc3ccc(-c4cccnc4)cc3)c3nccn23)cc1 [Compound 153]
EC50 (PBMC): 0.001 to 0.1 µM

NC(=O)c1ccc(-c2cnc(Nc3ccc(N4CCN(CCO)CC4)cc3)c3nccn23)cc1 [Compound 156]
EC50 (PBMC): > 1 µM

CCNCCNC(=O)c1ccc(Nc2ncc(-c3cn[nH]c3)n3ccnc23)cc1 [Compound 56]
EC50 (PBMC): > 1 µM

O=C(NCCc1cccnc1)c1ccc(Nc2ncc(-c3cn[nH]c3)n3ccnc23)cc1 [Compound 93]
EC50 (PBMC): > 1 µM

NC(=O)c1ccc(Nc2ncc(-c3cn[nH]c3)n3ccnc23)cc1 [Compound 11]
EC50 (PBMC): > 1 µM

CN1CCN(c2ccc(Nc3ncc(-c4cc(C(N)=O)co4)n4ccnc34)cc2)CC1 [Compound 151]
EC50 (PBMC): > 1 µM

CCN(CC)CCNC(=O)c1ccc(Nc2ncc(-c3cn[nH]c3)n3ccnc23)cc1 [Compound 32, N-(2-Diethylamino-ethyl)-4-[5-(1H-pyrazol-4-yl)-imidazo[1,2-a]pyrazin-8-ylamino]-benzamide]
EC50 (PBMC): > 1 µM

CN1CCN(c2ccc(Nc3ncc(-c4ccnc(F)c4)n4ccnc34)cc2)CC1 [Compound 125, [5-(2-Fluoro-pyridin-4-yl)-imidazo[1,2-a]pyrazin-8-yl]-[4-(4-methyl-piperazin-1-yl)-phenyl]-amine]
EC50 (PBMC): > 1 µM

NC(=O)c1ncc(-c2cnc(Nc3ccc(N4CCOCC4)cc3)c3nccn23)s1 [Compound 173, 5-[8-(4-Morpholin-4-yl-phenylamino)-imidazo[1,2-a]pyrazin-5-yl]-thiazole-2-carboxylic acid amide]
EC50 (PBMC): > 1 µM

O=C(NCc1cccnc1)c1ccc(Nc2ncc(-c3cn[nH]c3)n3ccnc23)cc1 [Compound 35]
EC50 (PBMC): 0.501 to 1 µM

C[C@@H]1CN(c2ccc(Nc3ncc(-c4cc(F)c(C(N)=O)c(F)c4)n4ccnc34)cc2)[C@@H](C)CN1C [Compound 181]
EC50 (PBMC): > 1 µM

c1cn(-c2ccc(Nc3ncc(-c4cn[nH]c4)n4ccnc34)cc2)cn1 [Compound 168, (4-Imidazol-1-yl-phenyl)-[5-(1H-pyrazol-4-yl)-imidazo[1,2-a]pyrazin-8-yl]-amine]
EC50 (PBMC): > 1 µM

O=C(NC1CCNC1)c1ccc(Nc2ncc(-c3cn[nH]c3)n3ccnc23)cc1 (centres unmarked) [Compound 55]
EC50 (PBMC): > 1 µM

CN1CCN(c2ccc(Nc3ncc(-c4ccc(C(N)=O)cc4)n4ccnc34)cc2Cl)CC1 [Compound 136, 4-{8-[3-Chloro-4-(4-methyl-piperazin-1-yl)-phenylamino]-imidazo[1,2-a]pyrazin-5-yl}-benzamide]
EC50 (PBMC): 0.101 to 0.5 µM

CN1CCN(c2ccc(Nc3ncc(-c4ccc(C(N)=O)o4)n4ccnc34)cc2)CC1 [Compound 139, 5-{8-[4-(4-Methyl-piperazin-1-yl)-phenylamino]-imidazo[1,2-a]pyrazin-5-yl}-furan-2-carboxylic acid amide]
EC50 (PBMC): > 1 µM

4-(8-{4-[1-(2,2,2-Trifluoroethyl)piperidin-4-yl]phenylamino}imidazo[1,2-a]pyrazin-5-yl)thiophene-2-carboxylic acid amide [Compound 192]
EC50 (read-out: PBMC EC50): > 1 µM

C[C@@H]1CN(c2ccc(Nc3ncc(-c4csc(C(N)=O)c4)n4ccnc34)cc2)[C@@H](C)CN1C [Compound 186]
EC50 (PBMC): > 1 µM

CN1CCC(NC(=O)c2ccc(Nc3ncc(-c4cn[nH]c4)n4ccnc34)cc2)C1 (centres unmarked) [Compound 64]
EC50 (PBMC): > 1 µM

CN(C)C(CNC(=O)c1ccc(Nc2ncc(-c3cc[nH]c(=O)c3)n3ccnc23)cc1)c1cccnc1 (centres unmarked) [Compound 114]
EC50 (PBMC): > 1 µM

CC(C)N1CCN(c2ccc(Nc3ncc(-c4ccc5c(c4)CNC5=O)n4ccnc34)cc2)CC1 [Compound 205, 5-{8-[4-(4-Isopropyl-piperazin-1-yl)-phenylamino]-imidazo[1,2-a]pyrazin-5-yl}-2,3-dihydro-isoindol-1-one]
EC50 (PBMC): > 1 µM

CN1CCN(c2ccc(Nc3ncc(-c4ccc(C(N)=O)cn4)n4ccnc34)cc2)CC1 [Compound 128]
EC50 (PBMC): > 1 µM

Cc1oc(-c2cnc(Nc3ccc(N4CCOCC4)cc3)c3nccn23)cc1C(N)=O [Compound 188]
EC50 (PBMC): > 1 µM

CS(=O)(=O)c1ccc(Nc2ncc(-c3cn[nH]c3)n3ccnc23)cc1 [Compound 71]
EC50 (PBMC): > 1 µM

Source: US8178530B2, “Imidazolopyrazine compounds useful for the treatment of degenerative and inflammatory diseases” (Janssen Pharmaceutica NV, priority 2006, dated 2012)
